Experimental findings from ChEMBL document CHEMBL1255464, “Ethambutol optimal clinical dose and susceptibility breakpoint identification by use of a novel pharmacokinetic-pharmacodynamic model of disseminated intracellular Mycobacterium avium” (Antimicrob Agents Chemother, 2010) are described below.

In brackets after ≈: the same amount, converted by molar mass.

The test system of data set [1] is Mycobacterium avium. The data set is described as follows: Antimycobacterial activity against Mycobacterium avium ATCC 700898 infected in human THP1 cells assessed as intracellular bacterial killing after 7 days. The note with it: ATCC 700898, THP-1, 168 h. It is filed as functional, organism-based.
In data set [2] the test system is Mycobacterium avium. The data set is described as follows: Antimycobacterial activity against Mycobacterium avium ATCC 700898 infected in human THP1 cells assessed as intracellular bacterial killing. It is filed as functional. The conditions noted are these: ATCC 700898, THP-1.
Data set [3] has as its system Mycobacterium avium. The data set is described as follows: Antimycobacterial activity against Mycobacterium avium ATCC 700898 infected in human THP1 cells. The format is functional, THP-1.
The subject of data set [4] is Mycobacterium avium. Description: Antimycobacterial activity against Mycobacterium avium ATCC 700898 infected in human THP1 cells assessed as extracellular bacterial killing after 7 days. The format is functional, organism-based. The note with it: ATCC 700898, THP-1, 168 h.
The subject of data set [5] is Mycobacterium avium. Description: Antimycobacterial activity against Mycobacterium avium ATCC 700898 infected in human THP1 cells assessed as extracellular bacterial killing. It is filed as functional. The note with it: ATCC 700898, THP-1.
For data set [6], the system named is THP-1. Description: Cytotoxicity against human THP1 cells. It is filed as cell-based.

Turning to `CC[C@@H](CO)NCCN[C@@H](CC)CO` [ETHAMBUTOL], the EC50 (as a rule, the concentration at which the effect is half-maximal) was 7.93 µg/mL (≈ 38.8 µM) in data set [1] and 5.38 µg/mL (≈ 26.3 µM) in data set [4]. In addition, the Emax in data set [2] amounted to 0.67 log10 CFU/ml; in data set [5], 5.54 log10 CFU/ml. 8 µg/mL (≈ 39.2 µM) was the least that counted as inhibitory in data set [3] (MIC). Also, in data set [6], the Activity entry is on record as “Non-toxic”.
